Measured values published in ChEMBL document CHEMBL3046635, “Synthesis and Herbicidal Activity of New Pyrazole-4-carboxamide Derivatives” (J Pestic Sci, 2004).
Activity calls are given as the source filed them. Unless noted, no cut-off for these calls is given here.

Tests used:
Echinochloa oryzicola [1] = test: Pre-emergence herbicidal activity against Echinochloa oryzicola assessed as bleaching of stem/leaf parts; type: functional, organism-based
Rotala indica [2] = test: Pre-emergence herbicidal activity against Rotala indica at 500 g a.i/ha measured after 14 days; type: functional, organism-based
Lindernia procumbens [3] = test: Pre-emergence herbicidal activity against Lindernia procumbens at 100 g a.i/ha measured after 14 days; type: functional, organism-based
Echinochloa oryzicola [4] = test: Pre-emergence herbicidal activity against Echinochloa oryzicola at 500 g a.i/ha measured after 14 days; type: functional, organism-based
Cyperus difformis [5] = test: Pre-emergence herbicidal activity against Cyperus difformis assessed as bleaching of stem/leaf parts; type: functional, organism-based
Ammannia multiflora [6] = test: Pre-emergence herbicidal activity against Ammannia multiflora assessed as bleaching of stem/leaf parts; type: functional, organism-based
Oryza sativa [7] = test: Phytotoxicity against Oryza sativa cv. Koshihikari (rice) at 500 g a.i/ha measured after 14 days; type: organism-based; conditions: in vivo, 336 h
Elatine triandra [8] = test: Post-emergence herbicidal activity against Elatine triandra assessed as bleaching of stem/leaf parts; type: functional, organism-based; note: test concentration or dose not given here
Echinochloa oryzicola [9] = test: Pre-emergence herbicidal activity against Echinochloa oryzicola at 100 g a.i/ha measured after 14 days; type: functional, organism-based
Eleocharis acicularis [10] = test: Pre-emergence herbicidal activity against Eleocharis acicularis assessed as bleaching of stem/leaf parts; type: functional, organism-based
Eleocharis acicularis [11] = test: Pre-emergence herbicidal activity against Eleocharis acicularis at 500 g a.i/ha measured after 14 days; type: functional, organism-based
Ammannia multiflora [12] = test: Pre-emergence herbicidal activity against Ammannia multiflora at 500 g a.i/ha measured after 14 days; type: functional, organism-based
Ammannia multiflora [13] = test: Pre-emergence herbicidal activity against Ammannia multiflora at 100 g a.i/ha measured after 14 days; type: functional, organism-based
Cyperus difformis [14] = test: Post-emergence herbicidal activity against Cyperus difformis assessed as bleaching of stem/leaf parts; type: functional, organism-based; note: test concentration or dose not given here
Rotala indica [15] = test: Post-emergence herbicidal activity against Rotala indica assessed as bleaching of stem/leaf parts; type: functional, organism-based; note: test concentration or dose not given here
[16] = tested on: Schoenoplectiella juncoides; test: Pre-emergence herbicidal activity against Schoenoplectiella juncoides assessed as bleaching of stem/leaf parts; type: functional, organism-based
Cyperus difformis [17] = test: Pre-emergence herbicidal activity against Cyperus difformis at 100 g a.i/ha measured after 14 days; type: functional, organism-based
Oryza sativa [18] = test: Phytotoxicity against Oryza sativa cv. Koshihikari (rice) at 100 g a.i/ha measured after 14 days; type: organism-based; conditions: in vivo, 336 h
Rotala indica [19] = test: Pre-emergence herbicidal activity against Rotala indica assessed as bleaching of stem/leaf parts; type: functional, organism-based
[20] = tested on: Schoenoplectiella juncoides; test: Pre-emergence herbicidal activity against Schoenoplectiella juncoides at 500 g a.i/ha measured after 14 days; type: functional, organism-based
Pontederia vaginalis [21] = test: Pre-emergence herbicidal activity against Monochoria vaginalis at 100 g a.i/ha measured after 14 days; type: functional, organism-based
Elatine triandra [22] = test: Pre-emergence herbicidal activity against Elatine triandra assessed as bleaching of stem/leaf parts; type: functional, organism-based
Lindernia procumbens [23] = test: Pre-emergence herbicidal activity against Lindernia procumbens assessed as bleaching of stem/leaf parts; type: functional, organism-based
Pontederia vaginalis [24] = test: Pre-emergence herbicidal activity against Monochoria vaginalis assessed as bleaching of stem/leaf parts; type: functional, organism-based
Eleocharis acicularis [25] = test: Pre-emergence herbicidal activity against Eleocharis acicularis at 100 g a.i/ha measured after 14 days; type: functional, organism-based
Elatine triandra [26] = test: Pre-emergence herbicidal activity against Elatine triandra at 500 g a.i/ha measured after 14 days; type: functional, organism-based
Pontederia vaginalis [27] = test: Post-emergence herbicidal activity against Monochoria vaginalis assessed as bleaching of stem/leaf parts; type: functional, organism-based; note: test concentration or dose not given here
Lindernia procumbens [28] = test: Pre-emergence herbicidal activity against Lindernia procumbens at 500 g a.i/ha measured after 14 days; type: functional, organism-based
[29] = tested on: Schoenoplectiella juncoides; test: Post-emergence herbicidal activity against Schoenoplectiella juncoides assessed as bleaching of stem/leaf parts; type: functional, organism-based; note: test concentration or dose not given here
Cyperus difformis [30] = test: Pre-emergence herbicidal activity against Cyperus difformis at 500 g a.i/ha measured after 14 days; type: functional, organism-based
Elatine triandra [31] = test: Pre-emergence herbicidal activity against Elatine triandra at 100 g a.i/ha measured after 14 days; type: functional, organism-based
Pontederia vaginalis [32] = test: Pre-emergence herbicidal activity against Monochoria vaginalis at 500 g a.i/ha measured after 14 days; type: functional, organism-based
Echinochloa oryzicola [33] = test: Post-emergence herbicidal activity against Echinochloa oryzicola assessed as bleaching of stem/leaf parts; type: functional, organism-based; note: test concentration or dose not given here
Rotala indica [34] = test: Pre-emergence herbicidal activity against Rotala indica at 100 g a.i/ha measured after 14 days; type: functional, organism-based
Eleocharis acicularis [35] = test: Post-emergence herbicidal activity against Eleocharis acicularis assessed as bleaching of stem/leaf parts; type: functional, organism-based; note: test concentration or dose not given here
[36] = tested on: Schoenoplectiella juncoides; test: Pre-emergence herbicidal activity against Schoenoplectiella juncoides at 100 g a.i/ha measured after 14 days; type: functional, organism-based
Lindernia procumbens [37] = test: Post-emergence herbicidal activity against Lindernia procumbens assessed as bleaching of stem/leaf parts; type: functional, organism-based; note: test concentration or dose not given here
Ammannia multiflora [38] = test: Post-emergence herbicidal activity against Ammannia multiflora assessed as bleaching of stem/leaf parts; type: functional, organism-based; note: test concentration or dose not given here

Compound | Activity (Echinochloa oryzicola [1]) | Activity (Rotala indica [2]) | Activity (Lindernia procumbens [3]) | Activity (Echinochloa oryzicola [4]) | Activity (Cyperus difformis [5]) | Activity (Ammannia multiflora [6]) | Activity (Oryza sativa [7]) | Activity (Elatine triandra [8]) | Activity (Echinochloa oryzicola [9]) | Activity (Eleocharis acicularis [10]) | Activity (Eleocharis acicularis [11]) | Activity (Ammannia multiflora [12]) | Activity (Ammannia multiflora [13]) | Activity (Cyperus difformis [14]) | Activity (Rotala indica [15]) | Activity [16] | Activity (Cyperus difformis [17]) | Activity (Oryza sativa [18]) | Activity (Rotala indica [19]) | Activity [20] | further results
CCCN(OCC)C(=O)c1cn(C)nc1OCc1cccc(C(F)(F)F)c1 | Active | Active | Active | Active | Active | Active | Non-toxic | Active | Active | Active | Active | Active | Active | Active | Active | Active | Active | Non-toxic | Active | inactive | Activity (Pontederia vaginalis [21]): inactive; Activity (Elatine triandra [22]): Active; Activity (Lindernia procumbens [23]): Active; Activity (Pontederia vaginalis [24]): Active; Activity (Eleocharis acicularis [25]): inactive; Activity (Elatine triandra [26]): Active; Activity (Pontederia vaginalis [27]): Active; Activity (Lindernia procumbens [28]): Active; Activity [29]: Active; Activity (Cyperus difformis [30]): Active; Activity (Elatine triandra [31]): Active; Activity (Pontederia vaginalis [32]): Active; Activity (Echinochloa oryzicola [33]): Active; Activity (Rotala indica [34]): Active; Activity (Eleocharis acicularis [35]): Active; Activity [36]: inactive; Activity (Lindernia procumbens [37]): Active; Activity (Ammannia multiflora [38]): Active
Cn1cc(C(=O)NOc2ccc(Cl)cc2)c(OCc2cccc(C(F)(F)F)c2)n1 | Active | Active | Active | Active | Active | Active | Non-toxic | Active | inactive | Active | Active | Active | Active | Active | Active | Active | Active | Non-toxic | Active | Active | Activity (Pontederia vaginalis [21]): Active; Activity (Elatine triandra [22]): Active; Activity (Lindernia procumbens [23]): Active; Activity (Pontederia vaginalis [24]): Active; Activity (Eleocharis acicularis [25]): Active; Activity (Elatine triandra [26]): Active; Activity (Pontederia vaginalis [27]): Active; Activity (Lindernia procumbens [28]): Active; Activity [29]: Active; Activity (Cyperus difformis [30]): Active; Activity (Elatine triandra [31]): Active; Activity (Pontederia vaginalis [32]): Active; Activity (Echinochloa oryzicola [33]): Active; Activity (Rotala indica [34]): Active; Activity (Eleocharis acicularis [35]): Active; Activity [36]: Active; Activity (Lindernia procumbens [37]): Active; Activity (Ammannia multiflora [38]): Active
CCCCONC(=O)c1cn(C)nc1OCc1cccc(C(F)(F)F)c1 | Active | Active | Active | Active | Active | Active | Toxic | Active | Active | Active | Active | Active | Active | Active | Active | Active | Active | Non-toxic | Active | Active | Activity (Pontederia vaginalis [21]): Active; Activity (Elatine triandra [22]): Active; Activity (Lindernia procumbens [23]): Active; Activity (Pontederia vaginalis [24]): Active; Activity (Eleocharis acicularis [25]): Active; Activity (Elatine triandra [26]): Active; Activity (Pontederia vaginalis [27]): Active; Activity (Lindernia procumbens [28]): Active; Activity [29]: Active; Activity (Cyperus difformis [30]): Active; Activity (Elatine triandra [31]): Active; Activity (Pontederia vaginalis [32]): Active; Activity (Echinochloa oryzicola [33]): Active; Activity (Rotala indica [34]): Active; Activity (Eleocharis acicularis [35]): Active; Activity [36]: Active; Activity (Lindernia procumbens [37]): Active; Activity (Ammannia multiflora [38]): Active
Cn1cc(C(=O)NOc2ccc(F)cc2F)c(OCc2cccc(C(F)(F)F)c2)n1 | Active | Active | Active | Active | Active | Active | Non-toxic | Active | inactive | Active | Active | Active | Active | Active | Active | Active | Active | Non-toxic | Active | Active | Activity (Pontederia vaginalis [21]): Active; Activity (Elatine triandra [22]): Active; Activity (Lindernia procumbens [23]): Active; Activity (Pontederia vaginalis [24]): Active; Activity (Eleocharis acicularis [25]): Active; Activity (Elatine triandra [26]): Active; Activity (Pontederia vaginalis [27]): Active; Activity (Lindernia procumbens [28]): Active; Activity [29]: Active; Activity (Cyperus difformis [30]): Active; Activity (Elatine triandra [31]): Active; Activity (Pontederia vaginalis [32]): Active; Activity (Echinochloa oryzicola [33]): Active; Activity (Rotala indica [34]): Active; Activity (Eleocharis acicularis [35]): Active; Activity [36]: inactive; Activity (Lindernia procumbens [37]): Active; Activity (Ammannia multiflora [38]): Active
CCCONC(=O)c1cn(C)nc1OCc1cccc(C(F)(F)F)c1 | Active | Active | Active | Active | Active | Active | Toxic | Active | Active | Active | Active | Active | Active | Active | Active | Active | Active | Non-toxic | Active | Active | Activity (Pontederia vaginalis [21]): Active; Activity (Elatine triandra [22]): Active; Activity (Lindernia procumbens [23]): Active; Activity (Pontederia vaginalis [24]): Active; Activity (Eleocharis acicularis [25]): Active; Activity (Elatine triandra [26]): Active; Activity (Pontederia vaginalis [27]): Active; Activity (Lindernia procumbens [28]): Active; Activity [29]: Active; Activity (Cyperus difformis [30]): Active; Activity (Elatine triandra [31]): Active; Activity (Pontederia vaginalis [32]): Active; Activity (Echinochloa oryzicola [33]): Active; Activity (Rotala indica [34]): Active; Activity (Eleocharis acicularis [35]): Active; Activity [36]: Active; Activity (Lindernia procumbens [37]): Active; Activity (Ammannia multiflora [38]): Active
CONC(=O)c1cn(C)nc1OCc1cccc(C(F)(F)F)c1 | Active | Active | Active | Active | Active | Active | Non-toxic | Active | Active | Active | Active | Active | Active | Active | Active | Active | Active | Non-toxic | Active | Active | Activity (Pontederia vaginalis [21]): Active; Activity (Elatine triandra [22]): Active; Activity (Lindernia procumbens [23]): Active; Activity (Pontederia vaginalis [24]): Active; Activity (Eleocharis acicularis [25]): inactive; Activity (Elatine triandra [26]): Active; Activity (Pontederia vaginalis [27]): Active; Activity (Lindernia procumbens [28]): Active; Activity [29]: Active; Activity (Cyperus difformis [30]): Active; Activity (Elatine triandra [31]): Active; Activity (Pontederia vaginalis [32]): Active; Activity (Echinochloa oryzicola [33]): Active; Activity (Rotala indica [34]): Active; Activity (Eleocharis acicularis [35]): Active; Activity [36]: Active; Activity (Lindernia procumbens [37]): Active; Activity (Ammannia multiflora [38]): Active
